Test results: ChEMBL document CHEMBL3390840, “Expanding the horizon of chemotherapeutic targets: From MDM2 to MDMX (MDM4)” (Medchemcomm, 2011)

Legend:
MDMX = MDMX (Homo sapiens, UniProt O15151); assay: Inhibition of human recombinant MDMX (1 to 185) after 30 mins by fluorescence polarization assay
Protein Mdm4 = target: T1, Protein Mdm4 (Homo sapiens, UniProt O15151); assay: Inhibition of human full length GST-tagged MDMX expressed in Escherichia coli TG1 after 15 mins by ELISA
T1 sequence (O15151 whole entry): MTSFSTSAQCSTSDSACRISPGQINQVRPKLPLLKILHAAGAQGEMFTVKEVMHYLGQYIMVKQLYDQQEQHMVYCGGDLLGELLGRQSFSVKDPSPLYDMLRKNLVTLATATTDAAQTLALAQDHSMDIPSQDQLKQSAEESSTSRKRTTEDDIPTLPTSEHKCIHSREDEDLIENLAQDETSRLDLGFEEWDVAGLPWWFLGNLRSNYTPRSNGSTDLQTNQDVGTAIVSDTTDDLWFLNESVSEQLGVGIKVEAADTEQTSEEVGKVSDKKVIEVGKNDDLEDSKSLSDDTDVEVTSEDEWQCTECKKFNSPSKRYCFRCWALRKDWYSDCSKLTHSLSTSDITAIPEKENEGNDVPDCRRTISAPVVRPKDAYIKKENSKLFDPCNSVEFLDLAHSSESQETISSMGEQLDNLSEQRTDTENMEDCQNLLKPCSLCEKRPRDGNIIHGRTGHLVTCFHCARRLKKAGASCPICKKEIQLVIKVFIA

[1] = target: E3 ubiquitin-protein ligase Mdm2 (Homo sapiens, UniProt Q00987); assay: Inhibition of human full length GST-tagged MDM2 expressed in Escherichia coli TG1 after 15 mins by ELISA
Sequence of E3 ubiquitin-protein ligase Mdm2 (Q00987 whole entry): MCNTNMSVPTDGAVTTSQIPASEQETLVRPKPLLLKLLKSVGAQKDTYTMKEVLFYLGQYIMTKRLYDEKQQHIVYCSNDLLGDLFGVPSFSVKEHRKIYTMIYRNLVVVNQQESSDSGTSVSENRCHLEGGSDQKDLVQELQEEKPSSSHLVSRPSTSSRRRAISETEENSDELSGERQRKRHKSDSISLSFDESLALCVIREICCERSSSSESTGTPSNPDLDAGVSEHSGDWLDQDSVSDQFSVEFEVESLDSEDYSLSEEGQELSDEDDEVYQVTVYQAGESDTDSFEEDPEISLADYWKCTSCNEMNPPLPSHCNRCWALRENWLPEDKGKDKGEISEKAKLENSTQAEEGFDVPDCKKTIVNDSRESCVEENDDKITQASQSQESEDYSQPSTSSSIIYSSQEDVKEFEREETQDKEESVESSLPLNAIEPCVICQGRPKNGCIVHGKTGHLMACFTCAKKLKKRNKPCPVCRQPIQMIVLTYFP

Compound `CCOc1cc(/C=C2\C(=O)N(c3ccccc3)N=C2C)cc(Cl)c1OCC(=O)OC` has an EC50 (MDMX) of 840 nM.

With H-MPRFMDYWEGLN-OH the IC50 (Protein Mdm4) was 1650 nM and the IC50 [1] was 150 nM.
